Measurements from patent US20160010068A1, “FUSION POLYNUCLEOTIDES AND FUSION POLYPEPTIDES ASSOCIATED WITH CANCER AND PARTICULARLY MELANOMA AND THEIR USES AS THERAPEUTIC AND DIAGNOSTIC TARGETS” (priority 2013, published 2016).

Experiments:
[1] = target: T1, PWWP2A-ROS1 fusion (Homo sapiens, UniProt P08922); assay: Western blot of phosphorylation in melan-a cells expressing PWWP2A-ROS1 fusion construct; format: cell-based, mouse; conditions: FIG. 3d
T1 construct: exon 1 of PWWP2A is fused with exon 36-43 of ROS1, which contains the tyrosine kinase domain; expressed in transfected cells; host or cells: melan-a cells (immortalized, non-tumorigenic mouse melanocytes), stably transduced with lentivirus (pLenti6.3/TO/V5-Dest)

[2] = target: T1, PWWP2A-ROS1 fusion; assay: Western blot of signaling in melan-a cells expressing the PWWP2A-ROS1 fusion, with crizotinib; format: cell-based; conditions: representative of three independent experiments
Excerpt: FIG. 3 depicts ROS1 fusions. […] Scale bar, […]. Scale bar magnification, 50 mm. […] Scale bar, […]. Scale bar magnification, 50 mm. […] Scale bar, 10 mm. (c) Illustration of the PWWP2A-ROS1 kinase fusion. ROS1 is located on […], and PWWP2A on chromosome 5q33. Owing to genomic rearrangements, exon 1 of PWWP2A is fused with exon 36-43 of ROS1, which contains the tyrosine kinase domain. […] The indicated protein weight markers in kDa are estimated from molecular weight standards.
FIG. 8 depicts full western blots of FIG. 3d. (a) p-ROS1, (b) t-ROS1, (c) p-AKT, (d) t-AKT, (e) p-ERK, (f) t-ERK, (g) p-S6, (h) t-S6, (i) p-SHP2, (j) t-SHP2, (k) Hsp60. All molecular weight standards are indicated in kDa.

[3] = system: melanoma; conditions: twice daily; phase I trial; cited from earlier work

T1 sequence (P08922 with tags, fused parts or gaps): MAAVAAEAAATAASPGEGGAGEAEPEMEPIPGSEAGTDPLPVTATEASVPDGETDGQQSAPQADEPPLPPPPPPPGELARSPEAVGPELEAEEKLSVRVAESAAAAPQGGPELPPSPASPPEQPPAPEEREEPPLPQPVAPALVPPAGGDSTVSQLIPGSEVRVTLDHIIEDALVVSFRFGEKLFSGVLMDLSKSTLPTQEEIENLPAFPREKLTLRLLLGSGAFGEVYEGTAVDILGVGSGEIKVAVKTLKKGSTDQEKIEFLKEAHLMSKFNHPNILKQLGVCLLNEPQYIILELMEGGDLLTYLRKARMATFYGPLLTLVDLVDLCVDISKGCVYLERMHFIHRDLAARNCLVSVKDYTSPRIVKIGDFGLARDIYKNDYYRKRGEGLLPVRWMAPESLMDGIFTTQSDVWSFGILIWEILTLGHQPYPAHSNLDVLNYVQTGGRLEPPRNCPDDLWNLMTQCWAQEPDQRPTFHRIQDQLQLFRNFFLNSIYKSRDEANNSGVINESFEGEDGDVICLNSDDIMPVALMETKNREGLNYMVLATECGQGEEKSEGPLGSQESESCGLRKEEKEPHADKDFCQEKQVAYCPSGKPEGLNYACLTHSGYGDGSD

C[C@@H](Oc1cc(-c2cnn(C3CCNCC3)c2)cnc1N)c1c(Cl)ccc(F)c1Cl [Crizotinib, crizotinib]
phosphorylation of ERK [1]: not
phosphorylation of PWWP2A-ROS1, AKT, S6 and SHP2 [1]: at least partially inhibited
p-AKT [2]: inhibited at least partially
p-S6 [2]: inhibited at least partially
p-SHP2 [2]: inhibited at least partially
phosphorylation of the chimeric PWWP2A-ROS1 fusion protein [2]: inhibited at least partially

CCCS(=O)(=O)Nc1ccc(F)c(C(=O)c2c[nH]c3ncc(-c4ccc(Cl)cc4)cc23)c1F [vemurafenib]
maximum tolerated dose [3]: 60 mg
